Experimental data taken from publication PMC4039310 (Molecular Systems Biology, 2013).
“Also recorded” adds a separate entry of the source. Like-named read-outs stand apart in the source and are kept apart here.

How the values were obtained:
[1] = tested on: patients with leukemia and lung cancer; details: cited from earlier work
[2] = tested on: EGFR and ERK phosphorylation in PC9GR, HCC827 T790M and HCC4006 T790M cells; assay: Western blotting of signaling changes after 4 h drug treatment; assay type: cell-based, human
Method: Signaling changes were evaluated by western blotting after 4 h treatment. […] In (E and G), equal protein loading was confirmed by β-actin evaluation.
Immunoprecipitation and protein expression analysis
Whole cell lysates were prepared using ice-cold TNN-HS buffer (50 mM HEPES, pH 8.0, 150
protease inhibitor cocktail). Total cellular proteins were quantified using the Bio-Rad protein
assay. For immunoprecipitation, 600 μg of total protein was incubated with 6 μL of mouse
Biotechnology (Santa Cruz, CA) as the control overnight at 4°C with rotation and then incubated
with protein G-agarose beads (Roche, Indianapolis, IN) for 3 hours at 4°C. Beads were washed
five times with TNN-HS buffer, and immunoprecipitated proteins were eluted from beads with
30 μL of 2X SDS-PAGE sample buffer from Bio-Rad (Hercules, CA) at 95°C for 5 minutes.
pThr202/Tyr204-p44/42 MAPK, AKT, pSer473-AKT, and tSRC from Cell Signaling; GRB2,

[3] = target: proteins in total cell lysates of PC9 cells (Homo sapiens, UniProt P00533, DEL746-750); assay: Midostaurin affinity chromatography (drug pulldown) with LC-MS/MS, PC9 lysate; assay type: binding
Method: (§1) LC-MS/MS analysis was performed in duplicate on a LTQ-Orbitrap MS (Thermo Fisher).
(§2) RNA isolated from PC9 and PC9GR cells were infected with either ARHG5 shRNA or scrambled shRNA and cDNA transcription using RNeasy Mini kit and QuantiTect Reverse Transcription kit from Qiagen (Valencia, CA). Human ARHG5 probe and human 18s rRNA endogenous control were purchased from Applied Biosystems (Foster City, CA). Quantitative real-time PCR reactions were run in triplicate on MicroAmp® Optical 96-well reaction plates with barcode using the 7900HT Fast real-time PCR system, and data were analyzed with 2.3 SDS software and normalized by 18s endogenous control. […]
(§3) aminomethylbenzoic acid in the presence of HATU and diisopropylethylamine and subsequent […]
(§4) on NHS-activated Sepharose 4 Fast Flow resin (GE Healthcare Bio-Sciences AB, Uppsala, […]
(§5) Affinity chromatography was performed as reported previously with total cell lysates of PC9 and PC9GR cells containing each 5.5 mg of protein.
(§6) Eluates were loaded on a SDS-PAGE gel, briefly run into the gel, and excised as a single piece before in-gel trypsin digestion and sample processing, which was done as described (Rix et al, LC-MS/MS analysis was performed in duplicate on a LTQ-Orbitrap MS (Thermo Fisher). […]
(§7) searching with the Mascot (Matrix Science) and Sequest (Thermo Fisher) search engines.
(§8) Kinase inhibition analysis […]

[4] = target: T1, proteins in total cell lysates of PC9GR cells (Homo sapiens, UniProt P00533, DEL746-750/T790M); assay: Midostaurin affinity chromatography (drug pulldown) with LC-MS/MS, PC9GR lysate; assay type: binding; details: PC9GR lysate, E746-A750+T790M EGFR
T1 construct: endogenous in cells; host or cells: PC9GR
Method: as §1, §2, §3, §4, §5, §6, §7, §8

[5] = tested on: proteins in total cell lysates of PC9GR cells; assay: as above; assay type: binding, human; details: PC9 and PC9GR lysates
Method: as §1, §2, §3, §4, §5, §6, §7, §8

EGFR L858R = target: T2, EGFR L858R (Homo sapiens, UniProt P00533, L858R); assay: In vitro kinase inhibition assay (Millipore KinaseProfiler); assay type: biochemical; details: activating point mutation L858R; 0.0001 to 1 μM vs DMSO
T2 construct: purchased Merck Millipore (KinaseProfiler service)
Method: (§9) In vitro kinase inhibition assays were performed on the Millipore KinaseProfiler™ platform.
(§10) In vitro kinase assays were conducted using Merck Millipore's KinaseProfiler service according to the protocols detailed at http://www.millipore.com/techpublications/tech1/pf3036.
(§11) Human Phospho-kinase array assay
(§12) PC9 and PC9GR cells were infected with lentivirus expressing shRNA against ARHG5 or scrambled shRNA as control for 48 hours. The relative levels of phosphorylation of 46 kinase phosphorylation sites determination was performed using Human Phospho-Kinase Array Kit (R&D Systems, Minneapolis, MN). Briefly, two-hundred micrograms of total cell lysate protein were incubated with Phospho-Kinase array membranes overnight at 4 C. Detection of proteins was accomplished using the Detection Antibody Cocktail and enhanced […]

EGFR wild type = EGFR wild type (Homo sapiens, UniProt P00533); assay: as above; assay type: biochemical; details: wild-type allele; 0.0001 to 1 μM vs DMSO
Method: as §9, §10, §11, §12

HCC4006ER cells = tested on: HCC4006ER cells
Method: (§13) The ON-TARGET plus Smart pool custom siRNA library included siRNA pools containing four different siRNAs. This custom library and the ON-TARGET plus Non-Targeting Pool, non-targeting siRNA #4, and GAPD control siRNA pool were purchased from Thermo Scientific (Dharmacon). siRNA was delivered in triplicate to each well using a Precision^TM microplate liquid handler (BioTek). Plates were incubated for 5 days for cell viability assay and for 48 h for the pERK and pAKT in-cell western analyses. […] Viability and signaling changes were determined for each target gene after normalization on ON-TARGET plus Non-Targeting pool control siRNA. […]
(§14) The cell viability assay (CellTiter-Glo) was conducted according to the recommendations for the CellTiter-Glo Luminescent Cell Viability Assay from Promega (Madison, WI). Cells were plated […]
(§15) and either transfected with siRNA or infected with […] of lentiviruses plus 6 µg/mL polybrene (Sigma) for 5 days. Cell-Titer Glo reagent was added to each well, and luminescence was recorded using Victor plate reader from PerkinElmer (Walthom, MA). […]

HCC827ER cells = tested on: HCC827ER cells
Method: as §13, §14, §15

HCC4006 cells = tested on: HCC4006 cells
Method: as §13, §14, §15

PC9GR cells = tested on: PC9GR cells
Method: as §13, §14, §15

HCC827 cells = tested on: HCC827 cells
Method: as §13, §14, §15

PC9 cells = tested on: PC9 cells
Method: as §13, §14, §15

## C[C@]12O[C@H](C[C@]1(O)CO)n1c3ccccc3c3c4c(c5c6ccccc6n2c5c31)CNC4=O [CEP-701, lestaurtinib]
[1]; leukemia, ref Marshall et al, 2005
  tolerability: good tolerability
[2]
  effects on EGFR and downstream ERK phosphorylation: little to modest effects; also recorded: reductions in ERK phosphorylation at concentrations below those necessary for inhibition of EGFR phosphorylation

## CO[C@@H]1[C@H](N(C)C(=O)c2ccccc2)C[C@H]2O[C@]1(C)n1c3ccccc3c3c4c(c5c6ccccc6n2c5c31)C(=O)NC4 [Midostaurin, midostaurin]
[1]; patients with leukemia and lung cancer, ref Monnerat et al, 2004, Fischer et al, 2010
  tolerability: well tolerated
[2]; western blotting after 4 h, three T790M EGFR cell lines
  effects on EGFR and downstream ERK phosphorylation: modest effects
[3]
  EGFR binding to immobilized midostaurin: no EGFR associated with midostaurin
[4]
  EGFR binding to immobilized midostaurin: EGFR bound to midostaurin
[5]
  protein kinases observed in total in midostaurin pulldown: 71
EGFR L858R
  effect on EGFR kinase activity: no substantial effect
EGFR wild type
  effect on EGFR kinase activity: no substantial effect

## TITIN
HCC4006ER cells
  HCC4006ER_Viability Viability %: 71.94%
HCC827ER cells
  HCC827ER_Viability Viability %: 73.41%
HCC4006 cells
  HCC4006_Viability Viability %: 63.88%
PC9GR cells
  PC9GR_Viability Viability %: 62.56%
HCC827 cells
  HCC827_Viability Viability %: 67.29%
PC9 cells
  PC9_Viability Viability %: 69.56%

## C#Cc1cccc(Nc2ncnc3cc(OCCOC)c(OCCOC)cc23)c1 [Erlotinib, erlotinib]
[2]
  effects on EGFR and downstream ERK phosphorylation: modest effects
